From patent publication EP0201094A2, “Thieno[2,3-d]imidazole derivatives and process for their preparation” (Hafslund Nycomed Pharma Aktiengesellschaft, priority 1985, dated 1986)

Test system: Magensekretion
Test: Gastric secretion in pylorus-ligated conscious female rats after oral dosing
Type: in vivo, Ratten (Stamm: Charles River CD)
Conditions: for Säure gesamt / Säurekonzentration / Menge: pylorus ligation 60 min after dosing; for Säure gesamt / Säurekonzentration: measured 4 h after ligation; for Menge: stomach content measured 4 h after ligation; for Hemmung der Magensekretion: result in words, increasing oral doses of 125, 250 and 500 µmol/kg
Experimental: Die Substanzen wurden in 20 %-igem Dimethylsulfoxid gelöst und wachen weiblichen Ratten - (Stamm: Charles River CD) in ansteigenden Dosen von 125, 250 und 500 µmol/kg mit dem einheitlichen Dosierungsvolumen von 20 ml/kg oral appliziert. 60 Minuten später wurden die Tiere einer Pylorusligatur unterzogen. 4 Stunden nach Setzen der Pylorusligatur wurde die Säurekonzentration und der Gesamtsäuregehalt im Magenvolumen der Tiere bestimmt. Die Kontrollgruppe erhielt 20 ml/kg Dimethylsulfoxid bzw. 20 ml/kg destilliertes Wasser.

Compound	Säure gesamt (125 µmol/kg oral)	Säurekonzentration (125 µmol/kg oral)	Menge (125 µmol/kg oral)	Säure gesamt (250 µmol/kg oral)	Säurekonzentration (250 µmol/kg oral)	Menge (250 µmol/kg oral)	Säure gesamt (500 µmol/kg oral)	Säurekonzentration (500 µmol/kg oral)	Menge (500 µmol/kg oral)	Hemmung der Magensekretion
COc1c(C)cnc(C[S+]([O-])c2nc3cc(C(C)=O)sc3[nH]2)c1C (centres unmarked) [Verbindung A, 5-Acetyl-2-((4-methoxy-3,5-dimethyl-2-pyridyl)-methylsulfinyl)-3H-thieno(2,3-d)imidazol]	0.37±0.06 mÄq	0.08±0.008 mÄq/ml	4.7 ± 0.4 mL	0.16±0.03 mÄq	0.04±0.006 mÄq/ml	3.4 ± 0.3 mL	0.13±0.03 mÄq	0.04±0.005 mÄq/ml	3.1 ± 0.4 mL	signifikante, dosisabhängige Hemmung der Magensekretion
COc1ccnc(C[S+]([O-])c2nc3ccsc3[nH]2)c1 (centres unmarked) [Verbindung B]	0.37±0.07 mÄq	0.08±0.007 mÄq/ml	4.5 ± 0.6 mL	0.27±0.05 mÄq	0.05±0.004 mÄq/ml	5.0 ± 0.6 mL	0.14±0.02 mÄq	0.03±0.004 mÄq/ml	4.5 ± 0.4 mL	signifikante, dosisabhängige Hemmung der Magensekretion
